The values that follow are results of earlier work, collected in patent US20050032891A1, “Method for treating alcoholic hepatitis” (University of Pittsburgh-of the Commonwealth System of …, priority 2003, published 2005).

For the data set, the system named is rats subjected to hemorrhagic shock and resuscitation. The following applies: treatment with EP.

For `CCOC(=O)C(C)=O` [EP, ethyl pyruvate], the hepatic lipid peroxidation entry is “decreases hepatic lipid peroxidation”.
